# Measurements as given in ChEMBL document CHEMBL1135988, “Synthesis and biological evaluation of new citrate-based siderophores as potential probes for the mechanism of iron uptake in mycobacteria” (2002).
# Test system: Mycobacterium avium subsp. paratuberculosis
# Assay: Ability to act as growth factor for Mycobacterium paratuberculosis at 2.4 uM concentration, expressed as growth index
# Format: functional, mycobacteria paratuberculosis
row,SMILES,GI
1,CCCCC/C=C/C(=O)N(O)CCCNC(=O)CC(O)(CC(=O)NCCCN(O)C(=O)/C=C/CCCCC)C(=O)OC(C)(C)C,0.69
2,COC(=O)[C@H](CCCCN(O)C(=O)/C=C/c1ccccc1)NC(=O)CC(O)(CC(=O)N[C@@H](CCCCN(O)C(=O)/C=C/c1ccccc1)C(=O)OC)C(=O)O,2.5
3,O=C(CC(O)(CC(=O)NCCCN(O)C(=O)/C=C/c1ccccc1)C(=O)O)NCCCN(O)C(=O)/C=C/c1ccccc1,0.76
4,CCCCC/C=C/C(=O)N(O)CCCNC(=O)CC1(O)CC(=O)N(CCCN(O)C(=O)/C=C/CCCCC)C1=O (centres undefined),4.6
5,CCCCCCCCCCCCC/C=C/C(=O)N(O)CCCC[C@H](NC(=O)[C@@H]1COC(c2ccccc2O)=N1)C(=O)OC(C(C)C)C(C)C(=O)N[C@H]1CCCCN(O)C1=O (some centres undefined),1
6,CC(C)(C)OC(=O)C(O)(CC(=O)NCCCN(O)C(=O)/C=C/c1ccccc1)CC(=O)NCCCN(O)C(=O)/C=C/c1ccccc1,4.6
7,O=C(CC(O)(CC(=O)NCCCCN(O)C(=O)/C=C/c1ccccc1)C(=O)O)NCCCCN(O)C(=O)/C=C/c1ccccc1,1.5
8,CCCCC/C=C/C(=O)N(O)CCCNC(=O)CC(O)(CC(=O)NCCCN(O)C(=O)/C=C/CCCCC)C(=O)O,1
9,CC(=O)N(O)CCCCCNC(=O)CCC(=O)N(O)CCCCCNC(=O)CCC(=O)N(O)CCCCCN [DEFEROXAMINE],0.92
